Tested on: hypertensive subjects
Test: Adverse events (TEAEs, SAEs, AESI, study drug discontinuation, dose modification);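 also: counts of spontaneously reported adverse events in the Safety Analysis Set, subjects grouped by treatment actually received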
Type: in vivo, human
Details: Part 1
From the text: In analyses performed on the Safety Analysis Set, subjects will be analyzed according to their actual treatment received.

Compound: CC(=O)N[C@H]1CC[C@H](NC(=O)CN2CCN(c3nncc(-c4ccc(C)cc4)n3)CC2)CC1 [Compound A HBr]
- On-treatment TEAE: Infections and infestations, Moderate (12.5 mg QD (N = 23)): 0 n (%)
- On-treatment TEAE: Investigations (12.5 mg QD (N = 23)): 3 (13.0) n (%)
- On-treatment TEAE: Investigations, Mild (12.5 mg QD (N = 23)): 3 (13.0) n (%)
- On-treatment TEAE: Investigations, Moderate (12.5 mg QD (N = 23)): 0 n (%)
- On-treatment TEAE: Metabolism and nutrition disorders (12.5 mg QD (N = 23)): 6 (26.1) n (%)
- On-treatment TEAE: Metabolism and nutrition disorders, Mild (12.5 mg QD (N = 23)): 4 (17.4) n (%)
- On-treatment TEAE: Metabolism and nutrition disorders, Moderate (12.5 mg QD (N = 23)): 1 (4.3) n (%)
- On-treatment TEAE: Nervous system disorders (12.5 mg QD (N = 23)): 2 (8.7) n (%)
- On-treatment TEAE: Nervous system disorders, Mild (12.5 mg QD (N = 23)): 2 (8.7) n (%)
- On-treatment TEAE: Orthostatic hypotension (12.5 mg QD (N = 23)): 2 (8.7) n (%)
- On-treatment TEAE: Orthostatic hypotension, Mild (12.5 mg QD (N = 23)): 2 (8.7) n (%)
- On-treatment TEAE: Psychiatric disorders (12.5 mg QD (N = 23)): 0 n (%)
- On-treatment TEAE: Psychiatric disorders, Moderate (12.5 mg QD (N = 23)): 0 n (%)
- On-treatment TEAE: Urinary tract infection (12.5 mg QD (N = 23)): 1 (4.3) n (%)
- On-treatment TEAE: Urinary tract infection, Mild (12.5 mg QD (N = 23)): 1 (4.3) n (%)
- On-treatment TEAE: Vascular disorders (12.5 mg QD (N = 23)): 3 (13.0) n (%)
- On-treatment TEAE: Vascular disorders, Mild (12.5 mg QD (N = 23)): 2 (8.7) n (%)
- On-treatment TEAE: Vascular disorders, Moderate (12.5 mg QD (N = 23)): 1 (4.3) n (%)
- On-treatment TEAE: any, Mild (12.5 mg QD (N = 23)): 12 (52.2) n (%)
- On-treatment TEAE: any, Moderate (12.5 mg QD (N = 23)): 3 (13.0) n (%)
- On-treatment TEAE: any, Severe (12.5 mg QD (N = 23)): 1 (4.3) n (%)
- Subjects with any On-treatment TEAEs leading to withdrawal from study drug (12.5 mg QD (N = 23)): 4 (17.4) n (%)
- TEAE leading to permanent discontinuation from study drug: Activated partial thromboplastin time prolonged (12.5 mg QD (N = 23)): 0 n (%)
- TEAE leading to permanent discontinuation from study drug: Cardiac disorders (12.5 mg QD (N = 23)): 1 (4.3) n (%)
- TEAE leading to permanent discontinuation from study drug: Coronary artery disease (12.5 mg QD (N = 23)): 1 (4.3) n (%)
- TEAE leading to permanent discontinuation from study drug: Dizziness (12.5 mg QD (N = 23)): 1 (4.3) n (%)
- TEAE leading to permanent discontinuation from study drug: Hyperkalaemia (12.5 mg QD (N = 23)): 2 (8.7) n (%)
- TEAE leading to permanent discontinuation from study drug: Hypertension (12.5 mg QD (N = 23)): 0 n (%)
- TEAE leading to permanent discontinuation from study drug: Hypotension (12.5 mg QD (N = 23)): 0 n (%)
- TEAE leading to permanent discontinuation from study drug: Investigations (12.5 mg QD (N = 23)): 0 n (%)
- TEAE leading to permanent discontinuation from study drug: Metabolism and nutrition disorders (12.5 mg QD (N = 23)): 2 (8.7) n (%)
- TEAE leading to permanent discontinuation from study drug: Nervous system disorders (12.5 mg QD (N = 23)): 1 (4.3) n (%)
- TEAE leading to permanent discontinuation from study drug: Orthostatic hypotension (12.5 mg QD (N = 23)): 0 n (%)
- TEAE leading to permanent discontinuation from study drug: Vascular disorders (12.5 mg QD (N = 23)): 0 n (%)
- On-treatment TEAE: Blood and lymphatic system disorders (25 mg BID (N = 30)): 2 (6.7) n (%)
- On-treatment TEAE: Blood and lymphatic system disorders, Mild (25 mg BID (N = 30)): 2 (6.7) n (%)
- On-treatment TEAE: Blood creatinine increased (25 mg BID (N = 30)): 0 n (%)
- On-treatment TEAE: Blood creatinine increased, Mild (25 mg BID (N = 30)): 0 n (%)
- On-treatment TEAE: Cardiac disorders (25 mg BID (N = 30)): 0 n (%)
- On-treatment TEAE: Cortisol decreased (25 mg BID (N = 30)): 1 (3.3) n (%)
- On-treatment TEAE: Cortisol decreased, Mild (25 mg BID (N = 30)): 1 (3.3) n (%)
- On-treatment TEAE: Dizziness (25 mg BID (N = 30)): 0 n (%)
- On-treatment TEAE: Gastrointestinal disorders (25 mg BID (N = 30)): 1 (3.3) n (%)
- On-treatment TEAE: Gastrointestinal disorders, Mild (25 mg BID (N = 30)): 1 (3.3) n (%)
- On-treatment TEAE: General disorders and administration site conditions (25 mg BID (N = 30)): 0 n (%)
- On-treatment TEAE: General disorders and administration site conditions, Mild (25 mg BID (N = 30)): 0 n (%)
- On-treatment TEAE: Glomerular filtration rate decreased (25 mg BID (N = 30)): 0 n (%)
- On-treatment TEAE: Glomerular filtration rate decreased, Mild (25 mg BID (N = 30)): 0 n (%)
- On-treatment TEAE: Headache (25 mg BID (N = 30)): 2 (6.7) n (%)
- On-treatment TEAE: Headache, Mild (25 mg BID (N = 30)): 2 (6.7) n (%)
- On-treatment TEAE: Hyperkalaemia (25 mg BID (N = 30)): 9 (30.0) n (%)
- On-treatment TEAE: Hyperkalaemia, Mild (25 mg BID (N = 30)): 7 (23.3) n (%)
- On-treatment TEAE: Hyperkalaemia, Moderate (25 mg BID (N = 30)): 2 (6.7) n (%)
- On-treatment TEAE: Hyperkalaemia, Severe (25 mg BID (N = 30)): 0 n (%)
- On-treatment TEAE: Hypertension (25 mg BID (N = 30)): 1 (3.3) n (%)
- On-treatment TEAE: Hypertension, Moderate (25 mg BID (N = 30)): 0 n (%)
- On-treatment TEAE: Infections and infestations (25 mg BID (N = 30)): 3 (10.0) n (%)
- On-treatment TEAE: Infections and infestations, Mild (25 mg BID (N = 30)): 2 (6.7) n (%)
- On-treatment TEAE: Infections and infestations, Moderate (25 mg BID (N = 30)): 1 (3.3) n (%)
- On-treatment TEAE: Investigations (25 mg BID (N = 30)): 3 (10.0) n (%)
- On-treatment TEAE: Investigations, Mild (25 mg BID (N = 30)): 2 (6.7) n (%)
- On-treatment TEAE: Investigations, Moderate (25 mg BID (N = 30)): 1 (3.3) n (%)
- On-treatment TEAE: Metabolism and nutrition disorders (25 mg BID (N = 30)): 10 (33.3) n (%)
- On-treatment TEAE: Metabolism and nutrition disorders, Mild (25 mg BID (N = 30)): 8 (26.7) n (%)
- On-treatment TEAE: Metabolism and nutrition disorders, Moderate (25 mg BID (N = 30)): 2 (6.7) n (%)
- On-treatment TEAE: Nervous system disorders (25 mg BID (N = 30)): 3 (10.0) n (%)
- On-treatment TEAE: Nervous system disorders, Mild (25 mg BID (N = 30)): 2 (6.7) n (%)
- On-treatment TEAE: Orthostatic hypotension (25 mg BID (N = 30)): 0 n (%)
- On-treatment TEAE: Orthostatic hypotension, Mild (25 mg BID (N = 30)): 0 n (%)
- On-treatment TEAE: Psychiatric disorders (25 mg BID (N = 30)): 0 n (%)
- On-treatment TEAE: Psychiatric disorders, Moderate (25 mg BID (N = 30)): 0 n (%)
- On-treatment TEAE: Urinary tract infection (25 mg BID (N = 30)): 3 (10.0) n (%)
- On-treatment TEAE: Urinary tract infection, Mild (25 mg BID (N = 30)): 2 (6.7) n (%)
- On-treatment TEAE: Vascular disorders (25 mg BID (N = 30)): 1 (3.3) n (%)
- On-treatment TEAE: Vascular disorders, Mild (25 mg BID (N = 30)): 1 (3.3) n (%)
- On-treatment TEAE: Vascular disorders, Moderate (25 mg BID (N = 30)): 0 n (%)
- On-treatment TEAE: any, Mild (25 mg BID (N = 30)): 14 (46.7) n (%)
- On-treatment TEAE: any, Moderate (25 mg BID (N = 30)): 4 (13.3) n (%)
- On-treatment TEAE: any, Severe (25 mg BID (N = 30)): 0 n (%)
- Subjects with any On-treatment TEAEs leading to withdrawal from study drug (25 mg BID (N = 30)): 1 (3.3) n (%)
- TEAE leading to permanent discontinuation from study drug: Activated partial thromboplastin time prolonged (25 mg BID (N = 30)): 0 n (%)
- TEAE leading to permanent discontinuation from study drug: Cardiac disorders (25 mg BID (N = 30)): 0 n (%)
- TEAE leading to permanent discontinuation from study drug: Coronary artery disease (25 mg BID (N = 30)): 0 n (%)
- TEAE leading to permanent discontinuation from study drug: Dizziness (25 mg BID (N = 30)): 0 n (%)
- TEAE leading to permanent discontinuation from study drug: Hyperkalaemia (25 mg BID (N = 30)): 1 (3.3) n (%)
- TEAE leading to permanent discontinuation from study drug: Hypertension (25 mg BID (N = 30)): 1 (3.3) n (%)
- TEAE leading to permanent discontinuation from study drug: Hypotension (25 mg BID (N = 30)): 0 n (%)
- TEAE leading to permanent discontinuation from study drug: Investigations (25 mg BID (N = 30)): 0 n (%)
- TEAE leading to permanent discontinuation from study drug: Metabolism and nutrition disorders (25 mg BID (N = 30)): 1 (3.3) n (%)
- TEAE leading to permanent discontinuation from study drug: Nervous system disorders (25 mg BID (N = 30)): 0 n (%)
- TEAE leading to permanent discontinuation from study drug: Orthostatic hypotension (25 mg BID (N = 30)): 0 n (%)
- TEAE leading to permanent discontinuation from study drug: Vascular disorders (25 mg BID (N = 30)): 1 (3.3) n (%)
- On-treatment TEAE: Blood and lymphatic system disorders (50 mg QD (N = 28)): 0 n (%)
- On-treatment TEAE: Blood and lymphatic system disorders, Mild (50 mg QD (N = 28)): 0 n (%)
- On-treatment TEAE: Blood creatinine increased (50 mg QD (N = 28)): 0 n (%)
- On-treatment TEAE: Blood creatinine increased, Mild (50 mg QD (N = 28)): 0 n (%)
- On-treatment TEAE: Cardiac disorders (50 mg QD (N = 28)): 1 (3.6) n (%)
- On-treatment TEAE: Cortisol decreased (50 mg QD (N = 28)): 0 n (%)
- On-treatment TEAE: Cortisol decreased, Mild (50 mg QD (N = 28)): 0 n (%)
- On-treatment TEAE: Dizziness (50 mg QD (N = 28)): 2 (7.1) n (%)
- On-treatment TEAE: Gastrointestinal disorders (50 mg QD (N = 28)): 1 (3.6) n (%)
- On-treatment TEAE: Gastrointestinal disorders, Mild (50 mg QD (N = 28)): 1 (3.6) n (%)

Source: patent US20260053811A1, “METHODS OF TREATING HYPERTENSION IN OBESE SUBJECTS” (Mineralys Therapeutics, Inc., priority 2022, published 2026)
